Reference: ChEMBL document CHEMBL6182913, “Design of Potent Small-Molecule Stimulator of Interferon Gene Inhibitor and Stimulator of Interferon Gene Mutant-Specific Degrader” (J Med Chem, 2025)
Active and inactive are the calls of the source. No cut-off for these calls is given here.

Assays:
[1] = target: T1, Stimulator of interferon genes protein (Homo sapiens, UniProt Q86WV6); assay: Inhibition of cGAMP-induced STING S154 mutant transfected in human THP-1 cells preincubated with compound for 6 hrs followed by cGAMP addition and measured after 18 hrs by QUANTI-Luc based microplate reader analysis; type: cell-based
Target sequence in this assay (Q86WV6 whole entry, looked up, stated change not applied): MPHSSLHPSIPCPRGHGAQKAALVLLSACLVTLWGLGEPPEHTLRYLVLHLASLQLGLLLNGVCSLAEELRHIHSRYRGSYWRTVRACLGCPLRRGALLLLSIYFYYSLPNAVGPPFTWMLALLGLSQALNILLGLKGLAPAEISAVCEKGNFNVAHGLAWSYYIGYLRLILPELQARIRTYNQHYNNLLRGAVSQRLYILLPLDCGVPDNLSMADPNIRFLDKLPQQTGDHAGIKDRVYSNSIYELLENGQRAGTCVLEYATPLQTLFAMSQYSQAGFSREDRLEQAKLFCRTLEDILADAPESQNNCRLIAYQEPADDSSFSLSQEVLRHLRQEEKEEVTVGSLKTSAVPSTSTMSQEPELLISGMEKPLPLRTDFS

[2] = target: T2, Stimulator of interferon genes protein (Mus musculus) (UniProt Q3TBT3); assay: In vivo inhibition of cGAMP-induced STING activation in autoimmune disease female C57BL/6 mouse model assessed as decrease in cGAMP-induced serum INF-beta level at 20 mg/kg, po pretreated with compound for 2 hrs followed by cGAMP addition and measured after 3 hrs by ELISA; type: functional, organism-based
T2 sequence (whole entry): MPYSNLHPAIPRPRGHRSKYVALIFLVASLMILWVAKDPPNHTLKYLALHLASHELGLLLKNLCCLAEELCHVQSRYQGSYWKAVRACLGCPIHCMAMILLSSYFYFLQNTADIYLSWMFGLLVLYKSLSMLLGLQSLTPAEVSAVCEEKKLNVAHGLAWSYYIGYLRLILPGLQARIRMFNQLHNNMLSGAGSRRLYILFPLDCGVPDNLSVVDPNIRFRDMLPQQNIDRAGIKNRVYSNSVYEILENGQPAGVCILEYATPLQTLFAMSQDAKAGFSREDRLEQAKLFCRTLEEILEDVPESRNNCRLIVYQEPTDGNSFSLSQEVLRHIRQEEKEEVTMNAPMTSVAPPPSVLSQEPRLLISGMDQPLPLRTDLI

[3] = tested on: Stimulator of interferon genes protein (Homo sapiens), Q86WV6 [UNDEFINED MUTATION]; assay: Induction of STING M155 mutant degradation in human THP-1 cells by measuring maximum efficacy at 0.01 to 10 uM incubated for 24 hrs by Western blotting analysis relative to control; type: cell-based; conditions: dose 0.01-10 µM
[4] = tested on: Stimulator of interferon genes protein (Homo sapiens), Q86WV6 [UNDEFINED MUTATION]; assay: Induction of STING M155 mutant degradation in human THP-1 cells at 0.5 uM preincubated with rapamycin for 2 hrs followed by compound addition and measured after 14 hrs by Western blotting analysis; type: cell-based
[5] = target: T2, Stimulator of interferon genes protein (Mus musculus); assay: In vivo inhibition of cGAMP-induced STING activation in autoimmune disease female C57BL/6 mouse model assessed as decrease in cGAMP-induced serum INF-beta level at 10 mg/kg, sc pretreated with compound for 2 hrs followed by cGAMP addition and measured after 3 hrs by ELISA; type: functional, organism-based
[6] = tested on: Stimulator of interferon genes protein (Homo sapiens), Q86WV6 [UNDEFINED MUTATION]; assay: Induction of STING M155 mutant degradation in human THP-1 cells at 1 uM incubated for 48 hrs by Western blotting analysis; type: cell-based
[7] = target: T1, Stimulator of interferon genes protein; assay: Induction of STING S154 mutant degradation in human THP-1 cells incubated for 24 hrs by Western blotting analysis; type: cell-based
Target sequence in this assay (Q86WV6 whole entry, looked up, stated change not applied): as the sequence (Q86WV6 whole entry, looked up, stated change not applied) above

[8] = target: T1, Stimulator of interferon genes protein; assay: Inhibition of STING activation in human THP1-Blue ISG cells assessed as decrease in cGAMP-induced STING phosphorylation at 0.1 to 1 uM preincubated with compound for 6 hrs followed by cGAMP addition and measured after 3 hrs by Western blotting analysis; type: cell-based; conditions: dose 0.1-1 µM, time 9.0 hrs
Target sequence in this assay (Q86WV6 whole entry): as the sequence (Q86WV6 whole entry, looked up, stated change not applied) above

[9] = target: T2, Stimulator of interferon genes protein (Mus musculus); assay: Inhibition of STING in mouse BMDM cells assessed as inhibition of poly(I:C) -induced IFN-beta release at 0.05 to 0.5 uM pretreated with compound for 6 hrs followed by poly(I:C) addition and measured after 18 hrs by ELISA; type: cell-based; conditions: dose 0.05-0.5 µM, time 24.0 hrs
[10] = AUC in mouse at 20 mg/kg, po by LC-MS/MS analysis; type: ADME, organism-based; conditions: in vivo
[11] = tested on: Stimulator of interferon genes protein (Homo sapiens), Q86WV6 [UNDEFINED MUTATION]; assay: Induction of STING M155 mutant degradation in human THP-1 cells at 1 uM preincubated with Baf A1 for 2 hrs followed by compound addition and measured after 22 hrs by Western blotting analysis; type: cell-based
[12] = target: T1, Stimulator of interferon genes protein; assay: Inhibition of STING activation in human THP1-Blue ISG cells assessed as inhibition of c-GAMP-induced STING oligomerization at 0.1 to 1 uM preincubated with compound for 6 hrs followed by cGAMP addition and measured after 3 hrs by Western blotting analysis; type: cell-based; conditions: dose 0.1-1 µM, time 9.0 hrs
Target sequence in this assay (Q86WV6 whole entry): as the sequence (Q86WV6 whole entry, looked up, stated change not applied) above

[13] = tested on: Stimulator of interferon genes protein (Homo sapiens), Q86WV6 [UNDEFINED MUTATION]; assay: Induction of STING S154 mutant degradation in human THP-1 cells by measuring maximum efficacy at 0.01 to 10 uM incubated for 24 hrs by Western blotting analysis relative to control; type: cell-based; conditions: dose 0.01-10 µM
[14] = target: T2, Stimulator of interferon genes protein (Mus musculus); assay: Inhibition of STING in mouse BMDM cells assessed as inhibition of cGAMP-induced IFN-beta release at 0.05 to 0.5 uM pretreated with compound for 6 hrs followed by cGAMP addition and measured after 18 hrs by ELISA; type: cell-based; conditions: dose 0.05-0.5 µM, time 24.0 hrs
[15] = target: T1, Stimulator of interferon genes protein; assay: Inhibition of cGAMP-induced STING R232 mutant transfected human THP-1 cells preincubated with compound for 6 hrs followed by cGAMP addition and measured after 18 hrs by QUANTI-Luc based microplate reader analysis; type: cell-based
Target sequence in this assay (Q86WV6 whole entry, looked up, stated change not applied): as the sequence (Q86WV6 whole entry, looked up, stated change not applied) above

Chain of Stimulator of interferon genes protein (Homo sapiens), Q86WV6 [UNDEFINED MUTATION] (Q86WV6 whole entry, looked up, stated change not applied): as the sequence (Q86WV6 whole entry, looked up, stated change not applied) above

IC50 [1]: 280 nM | inhibition [2]: Active | Emax [3]: 92% | Activity [4]: Active | inhibition [5]: Active | DC50 [7]: 310 nM | inhibition [8]: Active | inhibition [9]: inactive | AUC [10]: 2020 ng·h/mL | Activity [11]: inactive | inhibition [12]: Active | Emax [13]: 89% | inhibition [14]: Active | IC50 [15]: 30 nM
SMILES: COc1ccc2c(c1)C(=O)N(c1ccc(C(C)(C)C)c(F)c1)C(c1cc3cc(-c4ccc(C(=O)Nc5ccc(O)c(NS(C)(=O)=O)c5)cc4)ccc3o1)C2C(N)=O (stereo not given)
Activity [6]: Active; Compound Showed Maximum Degradation
